Laboratory results from paper PMC10630888, “Nuclear ERK1/2 signaling potentiation enhances neuroprotection and cognition via Importinα1/KPNA2” (EMBO Molecular Medicine, 2023).
Several values for one entry are separate records, joined by “and”; a condition that tells them apart may be missing. Equal entries are not always repeated.

Key:
[1] = tested on: S6 (Ser240/244) phosphorylation; test: Striatal pS6 (Ser240/244) immunofluorescence 1 h after single injection; format: in vivo, mouse; conditions: single injection 20 mg/kg i.p., individual mice
Experimental: Immunofluorescence was performed as described in Papale et al ([2016]). Briefly, 1 h after blocking in 5% normal goat serum, slices were incubated overnight at 4°C with the following primary antibodies: anti‐phospho (Ser10)‐acetylated (Lys14) histone H3 (1:1,000, Millipore), anti‐phospho‐S6 ribosomal protein (Ser235/236) (1:200, Cell Signaling Technology) anti‐phospho‐S6 ribosomal protein (Ser240/244) (1:200, Cell Signaling), cleaved caspase‐3 (1:200, Cell Signaling Technology), anti‐mutant Huntingtin (1:100, Developmental Studies Hybridoma Bank, University of Iowa, #MW8), and NeuN (1:1,000, Millipore). […]
In ex‐vivo and in‐vivo immunofluorescence experiments, the number of p‐S6 or p‐AcH3 immunoreactive neurons among NeuN‐positive neurons was counted in 2–3 consecutive striatal sections per mouse in four fields per section. Caspase 3‐positive cells were quantified among NeuN‐positive neurons in each slide and expressed as percentage (ratio between caspase‐3‐positive cells and total NeuN‐positive neurons) for each field acquired through the slide. The number of cells showing mutant Huntingtin inclusions were expressed as a percentage of mutant Huntingtin‐positive cells among DAPI‐positive cells.

pERK in DG = test: pERK in dentate gyrus of Tg2576 mice; format: in vivo, mouse; conditions: for pERK in dentate gyrus (Fig 5 panel k): individual animals
Experimental: Immunohistochemistry was performed as described in Papale et al ([2016]). Briefly, 1 h after blocking in 5% normal goat serum and 0.1% Triton X‐100 solution, free‐floating sections were incubated overnight at 4°C with one of the following primary antibodies: anti‐phospho‐p44/42 MAP kinase (Thr202/Tyr204) (1:200, Cell Signaling Technology #9101), anti‐phospho–Elk‐1 (Ser383) (1:100, Cell Signaling #9181), anti‐phospho‐Kv4.2 (Thr607)‐R (1:100, Santa Cruz sc22254‐R), anti‐phospho‐MSK‐1 (1:100 Cell Signaling Technology #9595), anti‐phospho‐MEK1/2 (Ser218/222) (1:100, sc‐7995 Santa Cruz Biotechnology), c‐Fos (1:100, sc‐52 Santa Cruz Biotechnology), tyrosine Hydroxylase (monoclonal 1:1,000, Sigma Aldrich, Italy) and anti‐DARPP‐32 (H3) (1:100, Santa Cruz Biotechnology, #sc‐271111) overnight at 4°C. Sections were then incubated with biotinylated goat anti‐rabbit IgG (1:200, Vector Laboratories) or biotinylated goat anti‐mouse (1:200, Vector Laboratories) for 2 h. The classic avidin‐peroxidase complex (ABC, Vector, UK) protocol was applied, using 3,3′‐diaminobenzidine (DAB, Sigma) as a chromogen.
Tg2576 mice were administered with RB5 or Scramble (20 mg/kg i.p.) for either 7 days, for IHC analysis, or with a single injection (20 mg/kg i.p.), for behavioral analysis.

GRKKRRQRRRPPQGGGGGEPRRTEGVGPGVPGEVEMVKGQPFDV [RB5, six D-amino acids, acetylated N-terminus]
pS6 (Ser240/244) positive neurons in striatum [1]: no effect | ERK phosphorylation in dentate gyrus (pERK in DG; Tg2576 mice, 7 months old, 20 mg/kg i.p. for 7 days): restored ERK phosphorylation | pERK in dentate gyrus (Fig 5 panel k) (pERK in DG; Tg2576 mice): 11.21 and 6.88 and 9.13 and 7.17 and 10.84 and 11.62 and 10.66 and 8.7 | pERK in dentate gyrus (Fig 5 panel k) (pERK in DG; WT mice): 8.18 and 9.67 and 8.87 and 7.48 and 10.41 and 9.92 and 13.01
